Experimental data taken from US10603332B2, “Anti-obesity composition” (SUNSTAR INC., priority 2013, dated 2020).

Tested on: preadipocyte 3T3-L1 cells
Assay: Suppression of fat droplet accumulation in adipocytes (Oil Red O staining, OD 490 nm)
Assay type: cell-based, mouse
Conditions: for Relative amount of fat accumulation: 3T3-L1 adipocytes, samples added Day 0 to Day 7 or 8 at the concentrations of each (Comparative) Example, medium to which nothing was added regarded as 100; for amount of fat accumulation: control (Comparative Example 1b) = 100; for relative amount of fat accumulation in adipocytes: control = 100
Procedure: Because they are immortalized cells, they can be mass-produced as fibroblasts before induction of differentiation. […] The passage media used were passage medium A (DMEM (4.5 g/L Glu), (Sigma, glucose, […]), 10% BS (Gibco, 16170), and 1% antibiotic (Gibco, Antibiotic-Antimycotic, 15240-062)) and passage medium B (DMEM (4.5 g/L Glu), 10% FBS (Biowest, S1560), and 1% antibiotic). The differentiation-inducing medium used was prepared by adding a 10-μg/mL insulin solution (Wako, 093-06351), 0.25 μM Dexamethasone (Sigma, D4902), and 0.11-mg/mL 3-isobutyl-1-methylxanthine (Sigma, 15879) to passage medium B. The differentiation-promoting medium used was prepared by adding a 5-μg/mL insulin solution to passage medium B. The differentiation-inducing medium and the differentiation-promoting medium were prepared before use. The oleuropein used was an “oleuropein” reagent available from Sigma. In the experiment, the oleuropein was used in such an amount that the final concentration was 50 μM. The hydroxytyrosol used was a “hydroxytyrosol” reagent available from Sigma. In the experiment, the hydroxytyrosol was used in such an amount that the final concentration was 25 μM. The willow extract used was a water extract (dry powder) of young branches including sprouts of willow (a plant mixture containing at least one or more members selected from Salix daphnoides, Salix purpurea, Salix fragilis, and Salix alba). In the experiment, the extract was diluted with the medium so that the final concentrations were 2.5, 5, 12.5, 25, 50, 100, and 200 μg/mL. The sulforaphane used was a “sulforaphane” reagent available from Sigma. In the experiment, a 100-mM DMSO solution was prepared, and diluted with the medium. A 5-mM γ-orizanol solution was prepared, and diluted with the medium. […] Embryo mouse) was grown in passage medium A. […] Sumilon Celltight C-1) so that the concentration was 2.5×10^4 cells/well. The cells were cultured for 2 days at 37° C. in the presence of 5% CO2. Thereafter, the medium was replaced with passage medium B. After confluent growth, culture was continued for about 2 days in passage medium B, and the medium was replaced with the differentiation-inducing medium (Day 0). Within 48 hours after the differentiation of the cells was induced in the differentiation-inducing medium, the medium was replaced with the differentiation-promoting medium (Day 2). Each sample was continuously added from the time of the replacement of the differentiation-inducing medium (Day 0) to Day 7 or 8. Cold 10% formalin/PBS was prepared by adding 10% (v/v) formalin to PBS (phosphate buffered saline) and adjusting the pH to 7.4, and then stored at 4° C. In this experiment, a 10% neutral buffered formalin solution (Wako, 060-03845) was used. The stain solution used was a 0.5% Oil Red O/isopropanol solution. Oil Red O (Wako, 154-02072) was dissolved in isopropanol (Sigma) by shaking to prepare a saturated solution. The 0.5% Oil Red 0/isopropanol solution and distilled water were mixed at a ratio of 3:2 immediately before use (preparation before use). The 3T3-L1 cells in the well plate cultured to Day 7 or 8 by the above culture method were used. Cold 10% formalin/PBS (0.5 mL/well) was added to the well plate containing the medium, and allowed to stand at room temperature. After the medium was removed, cold 10% formalin/PBS (0.5 mL/well) was newly added, and allowed to stand at room temperature. After the formalin solution was removed, the well plate was washed 2 or 3 times with distilled water (1 mL/well) to completely remove the remaining […]. After the well plate was washed once with 60% isopropanol (0.5 mL/well), the filtered stain solution was added at 1 mL/well, and allowed to stand at room temperature. After staining, the well plate was washed once with 60% isopropanol (0.5 mL/well), and washed 2 or 3 times with distilled water (1 mL/well). […] The eluted isopropanol solution was measured by a microplate reader at OD 490 nm. […]

In the case of `C[S+]([O-])CCCCN=C=S` (stereo not shown) [Comparative Example 4a, Sulforaphane], the “Relative amount of fat accumulation” value is reported as 109.8.
In the case of γ-Orizanol [7b], the “Relative amount of fat accumulation” value is reported as 78.5.
For `OCCc1ccc(O)c(O)c1` [hydroxytyrosol], the “amount of fat accumulation” value (25 μM added alone) was “around 100” and the “fat accumulation-suppressing effect higher than that of the control” value (37.5 μM added alone) was “about 25%”.
For `C[S+]([O-])CCCCN=C=S` (stereo not shown) [5b, Sulforaphane], the “Relative amount of fat accumulation” value was 104.8.
For `C/C=C1/[C@H](O[C@@H]2O[C@H](CO)[C@@H](O)[C@H](O)[C@H]2O)OC=C(C(=O)OC)[C@H]1CC(=O)OCCc1ccc(O)c(O)c1` [oleuropein], the “relative amount of fat accumulation in adipocytes” value (50 μM added alone) was “around 100”.
For `C/C=C1/[C@H](O[C@@H]2O[C@H](CO)[C@@H](O)[C@H](O)[C@H]2O)OC=C(C(=O)OC)[C@H]1CC(=O)OCCc1ccc(O)c(O)c1` [1a, Oleuropein], the “Relative amount of fat accumulation” value was 99.9.
For `C[S+]([O-])CCCCN=C=S` (stereo not shown) [5a, Sulforaphane], the “Relative amount of fat accumulation” value was 100.9.
For `OCCc1ccc(O)c(O)c1` [3b, Hydroxytyrosol], the “Relative amount of fat accumulation” value was 78.4.
In the case of `C[S+]([O-])CCCCN=C=S` (stereo not shown) [6b, Sulforaphane], the “Relative amount of fat accumulation” value is reported as 100.8.
`OCCc1ccc(O)c(O)c1` [2b, Hydroxytyrosol] was tested, and the “Relative amount of fat accumulation” value was 99.3.
For γ-orizanol, the “fat accumulation-suppressing effect higher than that of the control” value (0.5 μM added alone) was “about 25%”.
`C[S+]([O-])CCCCN=C=S` (stereo not shown) [sulforaphane] was tested, and the “amount of fat accumulation” value (0.25 or 2.5 μM added alone) was “around 100” and the “relative amount of fat accumulation in adipocytes” value (0.5 to 1.25 μM added alone) was “around 100”.
`C[S+]([O-])CCCCN=C=S` (stereo not shown) [3a, Sulforaphane] was tested, and the “Relative amount of fat accumulation” value was 110.7.
γ-Orizanol [Comparative Example 6a] was tested, and the “Relative amount of fat accumulation” value was 51.4.
